Molecules are shown by their SMILES. pIC50: −log10 of the molar value. Read-outs that look alike come from different tables or passages of the source. Some results are limits rather than exact numbers.

The target in experiment [1] is T1, mICE (Mus musculus, UniProt P29452).
T1 sequence (P29452 119-402): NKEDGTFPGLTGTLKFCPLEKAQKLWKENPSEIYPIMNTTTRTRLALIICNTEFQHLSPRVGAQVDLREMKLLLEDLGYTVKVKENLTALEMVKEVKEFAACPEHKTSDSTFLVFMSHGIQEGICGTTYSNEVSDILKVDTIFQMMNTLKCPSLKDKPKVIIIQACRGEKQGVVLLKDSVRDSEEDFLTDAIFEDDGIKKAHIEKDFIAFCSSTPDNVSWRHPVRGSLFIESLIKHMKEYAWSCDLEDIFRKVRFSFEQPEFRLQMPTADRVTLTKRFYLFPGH
Description: Fluorescence enzyme assay, IC50 for ICE (Example 1A). In kind it is biochemical. How it is done: (§1) Fluorescence enzyme assays detecting the activity of the compounds of Formula 1 utilizing the recombinant ICE and CPP32 enzymes were performed essentially according to Thomberry et al. (Nature, 356:768:774 (1992)) and Nicholson et al. (Nature, 376:37-43 (1995)) respectively, (herein incorporated by reference) in 96 well microtiter plates. The substrate for these assays was Acetyl-Tyr-Val-Ala-Asp-amino-4-methylcoumarin (AMC) for the ICE assay and Acetyl-Asp-Glu-Val-Asp-amino-4-methylcoumarin for the CPP32 and Mch5 assays. Enzyme reactions were run in ICE buffer (25 mM HEPES, 1 mM EDTA, 0.1% CHAPS, 10% sucrose, pH 7.5) containing 2 mM DTT at room temperature in duplicate. The assays were performed by mixing the following components:
(§2) 50 μl of either ICE, Mch2, Mch5 or CPP32 (18.8, 38, 8.1 and 0.153 nM concentrations, respectively) enzyme in ICE buffer containing either 8.0 (ICE, Mch2, CPP32) or 20 (Mch5) mM DTT;
(§3) 50 μl of either the compound of Formula 1 or ICE buffer (control); and
(§4) 100 μl of 20 μM substrate.
(§5) The enzyme and the compound of Formula 1 to be assayed were preincubated in the microtitre plate wells for 30 minutes at room temperature prior to the addition of substrate to initiate the reaction. Fluorescent AMC product formation was monitored for one hour at room temperature by measuring the fluorescence emission at 460 nm using an excitation wavelength of 360 nm. The fluorescence change in duplicate (control) wells were averaged and the mean values were plotted as a function of inhibitor concentration to determine the inhibitor concentration producing 50% inhibition (IC50).

Experiment [2] concerns the target T2, CPP32 (Homo sapiens, UniProt P42574).
T2 sequence (P42574 29-277): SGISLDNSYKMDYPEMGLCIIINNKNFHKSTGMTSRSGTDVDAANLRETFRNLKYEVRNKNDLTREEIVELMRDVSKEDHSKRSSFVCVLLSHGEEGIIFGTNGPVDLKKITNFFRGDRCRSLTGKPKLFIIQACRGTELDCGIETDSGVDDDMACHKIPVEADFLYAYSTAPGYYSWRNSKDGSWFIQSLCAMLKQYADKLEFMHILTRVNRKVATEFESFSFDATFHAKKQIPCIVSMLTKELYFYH
Description: Fluorescence enzyme assay, IC50 for CPP32 (Example 1A). In kind it is biochemical. As to conditions: Table 1, Formula A; 30 min preincubation, room temperature. On the procedure:
as §1, §2, §3, §4, §5

Where [3] appears, read: Table 1, Formula A, 30 min preincubation, room temperature, read-out: mICE IC50.

As a reminder, the pIC50 is the IC50 on a negative log10 scale, so that one unit is a factor of ten. `Cc1c(C(=O)NC(C(=O)NC(CC(=O)O)C(=O)COc2c(F)c(F)cc(F)c2F)C(C)C)n(C)c2ccccc12` (stereo not shown) [Example 109, N-[(1,3-dimethyl-indole-2-cabonyl)valinyl]-3-amino-4-oxo-5-(2,3,5,6-tetrafluorophenyloxy)-pentanoic Acid]: the negative logarithm of the IC50 (pIC50) in experiment [1] (read-out: IC50 (mICE)) was greater than 6.00.

Turning to `CC(C)Cc1c(C(=O)NC(CC(C)C)C(=O)NC(CC(=O)O)C(=O)COP(=O)(c2ccccc2)c2ccccc2)n(C)c2ccccc12` (stereo not shown) [Example 94, N-[(1-methyl-3-isobutyl-indole-2-cabonyl)leucinyl]-3-amino-5-(diphenylphosphoroxy)-4-oxo-pentanoic Acid], in experiment [1] (read-out: IC50 (mICE)), the pIC50 was greater than 6.00.

Consider `CC(C)C(NC(=O)c1cc2cc(F)ccc2n1C)C(=O)NC(CC(=O)O)C(=O)COc1c(F)c(F)cc(F)c1F` (stereo not shown) [Example 115, N-[(5-fluoro-1-methyl-indole-2-cabonyl)valinyl]-3-amino-4-oxo-5-(2,3,5,6-tetrafluorophenyloxy)-pentanoic Acid], for which the negative-log IC50 (pIC50) in experiment [1] (read-out: IC50 (mICE)) was greater than 6.00.

Turning to `Cc1c(C(=O)NC(C(=O)NC(CC(=O)O)C(=O)COc2cc3ccccc3cc2-c2ncc[nH]2)C(C)C)n(C)c2ccccc12` (stereo not shown) [Example 80, N-[(1,3-dimethyl-indole-2-cabonyl)valinyl]-3-amino-5-[3-(imidazol-2-yl)-naphthyl-2-oxy]-4-oxo-pentanoic Acid], in experiment [1] (read-out: IC50 (mICE)), the negative logarithm of the IC50 (pIC50) is greater than 6.00.

`C[C@H](NC(=O)c1cc2ccccc2n1Cc1ccccc1)C(=O)N[C@H](C=O)CC(=O)O` [Example 24, (3S)-3-[(1-Benzylindole-2-Carbonyl)Alaninyl]Amino-4-Oxo-Butanoic Acid]: the pIC50 in experiment [2] is less than 4.30; in experiment [1] (setting [3]), 6.41.

`Cn1c(C(=O)N2CCC[C@H]2C(=O)N[C@H](C=O)CC(=O)O)cc2ccccc21` [Example 7, (3S)-3-[(1-Methylindole-2-Carbonyl)Prolinyl]Amino-4-Oxo-Butanoic Acid]: the pIC50 was less than 4.30 in experiment [2] and 4.93 in experiment [1] (setting [3]).

Consider `CC(C)Cc1c(C(=O)NC(CC(C)C)C(=O)NC(CC(=O)O)C(=O)COc2c(F)c(F)cc(F)c2F)n(C)c2ccccc12` (stereo not shown) [Example 92, N-[(1-methyl-3-isobutyl-indole-2-cabonyl)leucinyl]-3-amino-4-oxo-5-(2,3,5,6-tetrafluorophenyloxy)-pentanoic Acid], for which the pIC50 in experiment [1] (read-out: IC50 (mICE)) is greater than 6.00.

On to `CC(C)C(NC(=O)c1cc2ccccc2n1C)C(=O)NC(CC(=O)O)C(=O)COc1c(F)c(F)cc(F)c1F` (stereo not shown) [Example 112, N-[(1-methyl-indole-2-cabonyl)valinyl]-3-amino-4-oxo-5-(2,3,5,6-tetrafluorophenyloxy)-pentanoic Acid], for which, in experiment [1] (read-out: IC50 (mICE)), the negative logarithm of the IC50 (pIC50) is greater than 6.00.

Take `C[C@H](NC(=O)c1cc2ccccc2n1C)C(=O)N[C@H](C=O)CC(=O)O` [Example 4, (3S)-3-[(1-Methylindole-2-Carbonyl)Alaninyl]Amino-4-Oxobutanoic Acid]: the figures for the pIC50 in experiment [2] and in experiment [1] (setting [3]) were less than 5.00 and 6.75, respectively.

For `CC(C)Cc1c(C(=O)NC(CC2CCCCC2)C(=O)NC(CC(=O)O)C(=O)COc2cc(C(F)(F)F)nn2-c2ccccc2)n(C)c2ccccc12` (stereo not shown) [Example 101, N-[(1-methyl-3-isobutyl-indole-2-cabonyl)cyclohexylalaninyl]-3-amino-4-oxo-5-[1-phenyl-3-(trifluoromethyl)pyrazol-5-yloxy]-pentanoic Acid], the pIC50 in experiment [1] (read-out: IC50 (mICE)) is greater than 6.00.

As to `CC(C)C[C@H](NC(=O)c1cc2ccccc2n1C)C(=O)N[C@H](C=O)CC(=O)O` [Example 13, (3S)-3-[(1-Methylindole-2-Carbonyl)Leucinyl]Amino-4-Oxo-Butanoic Acid], the negative-log IC50 (pIC50) in experiment [2] is 5.25; in experiment [1] (setting [3]), 5.26.

Take `CC(NC(=O)c1cc2ccccc2n1CCC(=O)O)C(=O)NC(C=O)CC(=O)O` [Example 33, (3S)-3-(1-(2′-Carboxyethyl)Indole-2-Carbonyl)Alaninyl] Amino-4-Oxobutanoic Acid]: the negative-log IC50 (pIC50) in experiment [2] was less than 4.30; in experiment [1] (setting [3]) it was 6.70.

As to `CC(C)Cc1c(C(=O)NC(C(=O)NC(CC(=O)O)C(=O)COc2ccccc2F)C(C)C)n(C)c2ccccc12` (stereo not shown) [Example 87, N-[(1-methyl-3-isobutyl-indole-2-cabonyl)valinyl]-3-amino-4-oxo-5-(2-fluorophenyloxy)-pentanoic Acid], in experiment [1] (read-out: IC50 (mICE)), the negative logarithm of the IC50 (pIC50) was greater than 6.00.

With `CC(NC(=O)c1cc2ccccc2n1CC(=O)O)C(=O)N[C@H](C=O)CC(=O)O` (stereo partly drawn) [Example 30, (3S)-3-[(1-(Carboxymethyl)Indole-2-Carbonyl)Alaninyl] Amino-4-Oxobutanoic Acid], the negative-log IC50 (pIC50) in experiment [2] is less than 4.30; in experiment [1] (setting [3]), 5.79.

Regarding `CC(C)Cc1c(C(=O)NC(CC2CCCCC2)C(=O)NC(CC(=O)O)C(=O)COC(=O)c2c(Cl)cccc2Cl)n(C)c2ccccc12` (stereo not shown) [Example 99], the pIC50 in experiment [1] (read-out: IC50 (mICE)) is greater than 6.00.

On to `C=CCCn1c(C(=O)NC(C(=O)NC(C=O)CC(=O)O)C(C)C)cc2ccccc21` [Example 27, (3S)-3-[(1-(4′-Butenyl)indole-2-Carbonyl)Valinyl]Amino-4-Oxobutanoic Acid], for which the negative-log IC50 (pIC50) is 5.84 in experiment [2] and 6.50 in experiment [1] (setting [3]).

`Cn1c(C(=O)NCC(=O)N[C@H](C=O)CC(=O)O)cc2ccccc21` [Example 21, (3S)-3-[(1-Methylindole-2-Carbonyl)Glycinyl]-Amino-4-Oxo-Butanoic Acid]: the pIC50 in experiment [2] was less than 4.30; in experiment [1] (setting [3]), 4.46.

Turning to `CC(C)Cc1c(C(=O)NC(CC(C)C)C(=O)NC(CC(=O)O)C(=O)COC(=O)c2c(Cl)cccc2Cl)n(C)c2ccccc12` (stereo not shown) [Example 90, N-[(1-methyl-3-isobutyl-indole-2-cabonyl)leucinyl]-3-amino-5-(2,6-dichlorobenzoyl) oxy-4-oxo Pentanoic Acid], in experiment [1] (read-out: IC50 (mICE)), the negative-log IC50 (pIC50) is greater than 6.00.

Regarding `CC(C)C(NC(=O)c1cc2ccccc2n1CC(=O)O)C(=O)NC(CC(=O)O)C(=O)COc1c(F)c(F)cc(F)c1F` (stereo not shown) [Example 118, N-{[1-(carboxymethyl)-indole-2-cabonyl]valinyl}-3-amino-4-oxo-5-(2,3,5,6-tetrafluorophenyloxy)-pentanoic Acid], in experiment [1] (read-out: IC50 (mICE)), the negative-log IC50 (pIC50) was greater than 6.00.

As to `CC(C)Cc1c(C(=O)NC(C(=O)NC(CC(=O)O)C(=O)COc2c(F)c(F)cc(F)c2F)C(C)C)n(C)c2ccccc12` (stereo not shown) [Example 83, N-[(1-methyl-3-isobutyl-indole-2-cabonyl)valinyl]-3-amino-4-oxo-5-(2,3,5,6-tetrafluorophenyloxy)-pentanoic Acid], in experiment [1] (read-out: IC50 (mICE)), the pIC50 is greater than 6.00.

Turning to `CC(C)C(NC(=O)c1cc2ccccc2n1C)C(=O)NC(C=O)CC(=O)O` [Example 10, (3S)-3-[1-Methylindole-2-Carbonyl)Vainyl]Amino-4-Oxo-Butanoic Acid], the negative logarithm of the IC50 (pIC50) in experiment [2] was 5.61; in experiment [1] (setting [3]) it was 6.27.

Consider `CC(C)Cc1c(C(=O)NC(CC2CCCCC2)C(=O)NC(CC(=O)O)C(=O)COc2c(F)c(F)cc(F)c2F)n(C)c2ccccc12` (stereo not shown) [Example 97, N-[(1-methyl-3-isobutyl-indole-2-cabonyl)cyclohexylalaninyl]-3-amino-4-oxo-5-(2,3,5,6-tetrafluorophenyloxy)-pentanoic Acid], for which the negative logarithm of the IC50 (pIC50) in experiment [1] (read-out: IC50 (mICE)) is greater than 6.00.

The record behind these values is US20030119748A1 (Idun Pharmaceuticals, Inc., priority 1996, published 2003).
